Molecular target: T1, human 11β-HSD1 (Homo sapiens, UniProt P28845)
T1 construct: expressed in transfected cells; host or cells: CHO cells (microsomes)
Experiment: Inhibition of microsomal preparation of 11β-HSD1 (SPA, Biological Test Example 1)
Type: biochemical
Conditions: for IC50: microsomes from CHO cells overexpressing human 11β-HSD1, read-out: IC50 Range
Procedure: The inhibition of microsomal preparation of 11β-HSD1 by compounds of the invention was measured essentially as previously described (K. Solly, S. S. Mundt, H. J. Zokian, G. J. Ding, A. Hermanowski-Vosatka, B. Strulovici, and W. Zheng, High-Throughput Screening of 11-Beta-Hydroxysteroid Dehydrogenase Type 1 in Scintillation Proximity Assay Format. Assay Drug Dev Technol 3 (2005) 377-384). All reactions were carried out at rt in 96 well clear flexible PET Microbeta plates (PerkinElmer). The assay begins by dispensing 49 μl of substrate solution (50 mM HEPES, pH 7.4, 100 mM KCl, 5 mM NaCl, 2 mM MgCl2, 2 mM NADPH and 160 nM [^3H]cortisone (1 Ci/mmol)) and mixing in 1 μL of the test compounds in DMSO previously diluted in half-log increments (8 points) starting at 0.1 mM. After a 10 minute pre-incubation, 50 μL of enzyme solution containing microsomes isolated from CHO cells overexpressing human 11β-HSD1 (10-20 μg/ml of total protein) was added, and the plates were incubated for 90 minutes at rt. The reaction was stopped by adding 50 μl of the SPA beads suspension containing 10 μM 18β-glycyrrhetinic acid, 5 mg/ml protein A coated YSi SPA beads (GE Healthcare) and 3.3 μg/ml of anti-cortisol antibody (East Coast Biologics) in Superblock buffer (Bio-Rad). The plates were shaken for 120 minutes at rt, and the SPA signal corresponding to [^3H]cortisol was measured on a Microbeta plate reader.

T1 sequence (P28845 whole entry): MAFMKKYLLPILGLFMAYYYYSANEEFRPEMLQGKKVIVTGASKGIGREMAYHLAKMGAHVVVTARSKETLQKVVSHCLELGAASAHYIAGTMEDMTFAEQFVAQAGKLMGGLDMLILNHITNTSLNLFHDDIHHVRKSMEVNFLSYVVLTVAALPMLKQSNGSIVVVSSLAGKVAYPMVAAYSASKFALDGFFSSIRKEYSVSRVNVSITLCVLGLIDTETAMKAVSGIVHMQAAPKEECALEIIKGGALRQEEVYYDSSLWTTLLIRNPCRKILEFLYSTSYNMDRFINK

Compound	inhibition at 0.1 µM (100 nM) [%]	inhibition at 0.111 µM (111 nM) [%]	IC50 [nM]	Average % inhibition at 111 nM (111 nM, 0.111 µM) [%]	Average % inhibition at 100 nM (100 nM, 0.1 µM) [%]
O=C(/C=C/c1ccccc1C(F)(F)F)N1CCC2(CC1)CC(O)c1cccc(Br)c12 (racemic) [EXAMPLE 16, (±)-(E)-1-(7-bromo-3-hydroxy-2,3-dihydrospiro[indene-1,4′-piperidine]-1′-yl)-3-(2-(trifluoromethyl)phenyl)prop-2-en-1-one]	95.3	98.6	< 100		
NC1CC2(CCN(C(=O)/C=C/c3ccccc3C(F)(F)F)CC2)c2c(Br)cccc21 (racemic) [EXAMPLE 18, (±)-(E)-1-(3-amino-7-bromo-2,3-dihydrospiro[indene-1,4′-piperidine]-1′-yl)-3-(2-(trifluoromethyl)phenyl)prop-2-en-1-one]		93.3	< 100		
CNC(=O)NC1CC2(CCN(C(=O)/C=C/c3ccccc3C(F)(F)F)CC2)c2c(Br)cccc21 (racemic) [EXAMPLE 19, (±)-(E)-1-(7-bromo-1′-(3-(2-(trifluoromethyl)phenyl)acryloyl)-2,3-dihydrospiro[indene-1,4′-piperidine]-3-yl)-3-methylurea]	98.1		< 100		
NC1CC2(CCN(C(=O)Cc3ccccc3C(F)(F)F)CC2)c2c(Br)cccc21 (racemic) [EXAMPLE 46, (±)-1-(3-amino-7-bromo-2,3-dihydrospiro[indene-1,4′-piperidine]-1′-yl)-2-(2-(trifluoromethyl)phenyl)ethanone]		78.6	< 100		
O=C(O)CC1CC2(CCN(C(=O)CCc3ccccc3C(F)(F)F)CC2)c2c(Br)cccc21 (single isomer, unassigned) [EXAMPLE 70.1]		97.6	< 100		
O=C(O)CC1CC2(CCN(C(=O)CCc3ccccc3C(F)(F)F)CC2)c2c(Br)cccc21 (single isomer, unassigned) [EXAMPLE 70.2]	95.7		< 100	99.2	
O=C(O)CC1CC2(CCN(C(=O)/C=C/c3ccccc3C(F)(F)F)CC2)c2c(Br)cccc21 (single isomer, unassigned; isomer 1) [EXAMPLE 2.1, (±)-(E)-2-(7-bromo-1′-(3-(2-(trifluoromethyl)phenyl)acryloyl)-2,3-dihydrospiro[indene-1,4′-piperidine]-3-yl)acetic acid isomer 1]	96.6		< 100		
O=C(O)CC1CC2(CCN(C(=O)/C=C/c3ccccc3C(F)(F)F)CC2)c2c(Br)cccc21 (single isomer, unassigned; isomer 2) [EXAMPLE 2.2, (E)-2-(7-bromo-1′-(3-(2-(trifluoromethyl)phenyl)acryloyl)-2,3-dihydrospiro[indene-1,4′-piperidine]-3-yl)acetic acid isomer 2]			< 100		100.3
O=C1CC2(CCN(C(=O)/C=C/c3ccccc3C(F)(F)F)CC2)c2c(Br)cccc21 [EXAMPLE 15, (E)-7-bromo-1′-(3-(2-(trifluoromethyl)phenyl)acryloyl)spiro[indene-1,4′-piperidin]-3(2H)-one]	95.3	92.6	< 100		
O=C1CC2(CCN(C(=O)/C=C/c3c(Cl)cccc3Cl)CC2)c2c(Br)cccc21 [EXAMPLE 17, (E)-7-bromo-1′-(3-(2,6-dichlorophenyl)acryloyl)spiro[indene-1,4′-piperidin]-3(2H)-one]		81.2	< 100		
CC(C)(C)OC(=O)N1Cc2ccccc2C2(CCN(C(=O)/C=C/c3ccccc3C(F)(F)F)CC2)C1 [EXAMPLE 20, (E)-tert-butyl 1′-(3-(2-(trifluoromethyl)phenyl)acryloyl)-1H-spiro[isoquinoline-4,4′-piperidine]-2(3H)-carboxylate]		29	< 100		

Further lines, results first:

inhibition at 0.1 µM (100 nM) [%]	inhibition at 0.111 µM (111 nM) [%]	IC50 [nM]	Average % inhibition at 111 nM (111 nM, 0.111 µM) [%]	Average % inhibition at 100 nM (100 nM, 0.1 µM) [%]	Compound
94.9	89.4	< 100			CCOC(=O)CC1CC2(CCN(C(=O)/C=C/c3ccccc3C(F)(F)F)CC2)c2c(Br)cccc21 (racemic) [EXAMPLE 1, (±)-(E)-ethyl 2-(7-bromo-1′-(3-(2-(trifluoromethyl)phenyl)acryloyl)-2,3-dihydrospiro[indene-1,4′-piperidine]-3-yl)acetate]
91.7	97.4	< 100			O=C(O)CC1CC2(CCN(C(=O)/C=C/c3ccccc3C(F)(F)F)CC2)c2c(Br)cccc21 (racemic) [EXAMPLE 2, (±)-(E)-2-(7-bromo-1′-(3-(2-(trifluoromethyl)phenyl)acryloyl)-2,3-dihydrospiro[indene-1,4′-piperidine]-3-yl)acetic acid]
96.3		< 100			O=C(O)CC1CC2(CCN(C(=O)/C=C/c3ccccc3C(F)(F)F)CC2)c2c(Cl)cccc21 (racemic) [EXAMPLE 3, (±)-(E)-2-(7-chloro-1′-(3-(2-(trifluoromethyl)phenyl)acryloyl)-2,3-dihydrospiro[indene-1,4′-piperidine]-3-yl)acetic acid]
	94.2	< 100			O=C(O)CC1CC2(CCN(C(=O)/C=C/c3ccc(F)cc3C(F)(F)F)CC2)c2c(Cl)cccc21 (racemic) [EXAMPLE 4, (±)-(E)-2-(7-chloro-1′-(3-(4-fluoro-2-(trifluoromethyl)phenyl)acryloyl)-2,3-dihydrospiro[indene-1,4′-piperidine]-3-yl)acetic acid]
	83.3	< 100			O=C(O)CC1CC2(CCN(C(=O)/C=C/c3cc(F)ccc3C(F)(F)F)CC2)c2c(Cl)cccc21 (racemic) [EXAMPLE 5, (±)-(E)-2-(7-chloro-1′-(3-(5-fluoro-2-(trifluoromethyl)phenyl)acryloyl)-2,3-dihydrospiro[indene-1,4′-piperidine]-3-yl)acetic acid]
	97.4	< 100			NC(=O)CC1CC2(CCN(C(=O)/C=C/c3ccccc3C(F)(F)F)CC2)c2c(Cl)cccc21 (racemic) [EXAMPLE 6, (±)-(E)-2-(7-chloro-1′-(3-(2-(trifluoromethyl)phenyl)acryloyl)-2,3-dihydrospiro[indene-1,4′-piperidine]-3-yl)acetamide]
	87.3	< 100			CNCCN(C)C(=O)CC1CC2(CCN(C(=O)/C=C/c3ccccc3C(F)(F)F)CC2)c2c(Cl)cccc21 (racemic) [EXAMPLE 7, (±)-(E)-2-(7-chloro-1′-(3-(2-(trifluoromethyl)phenyl)acryloyl)-2,3-dihydrospiro[indene-1,4′-piperidine]-3-yl)-N-methyl-N-(2-(methylamino)ethyl)acetamide]
	85.5	< 100			O=C(O)CC1CC2(CCN(C(=O)/C=C/c3ccccc3Cl)CC2)c2c(Cl)cccc21 (racemic) [EXAMPLE 8, (±)-(E)-2-(7-chloro-1′-(3-(2-chlorophenyl)acryloyl)-2,3-dihydrospiro[indene-1,4′-piperidine]-3-yl)acetic acid]
	77.8	< 100			O=C(O)CC1CC2(CCN(C(=O)/C=C/c3cccc(Cl)c3Cl)CC2)c2c(Cl)cccc21 (racemic) [EXAMPLE 9, (±)-(E)-2-(7-chloro-1′-(3-(2,3-dichlorophenyl)acryloyl)-2,3-dihydrospiro[indene-1,4′-piperidine]-3-yl)acetic acid]
	87.7	< 100			Cc1ccc2c(c1)C1(CCN(C(=O)/C=C/c3ccccc3C(F)(F)F)CC1)CC2CC(=O)O (racemic) [EXAMPLE 10, (±)-(E)-2-(6-methyl-1′-(3-(2-(trifluoromethyl)phenyl)acryloyl)-2,3-dihydrospiro[indene-1,4′-piperidine]-3-yl)acetic acid]
	75.1	< 100			O=C(O)CC1CC2(CCN(C(=O)/C=C/c3ccccc3C(F)(F)F)CC2)c2cc(F)ccc21 (racemic) [EXAMPLE 11, (±)-(E)-2-(6-fluoro-1′-(3-(2-(trifluoromethyl)phenyl)acryloyl)-2,3-dihydrospiro[indene-1,4′-piperidine]-3-yl)acetic acid]
	90.3	< 100			Cc1ccc2c(c1)C(CC(=O)O)CC21CCN(C(=O)/C=C/c2ccccc2C(F)(F)F)CC1 (racemic) [EXAMPLE 12, (±)-(E)-2-(5-methyl-1′-(3-(2-(trifluoromethyl)phenyl)acryloyl)-2,3-dihydrospiro[indene-1,4′-piperidine]-3-yl)acetic acid]
94.6	94.8	< 100			NC(=O)CC1CC2(CCN(C(=O)/C=C/c3ccccc3C(F)(F)F)CC2)c2c(Br)cccc21 (racemic) [EXAMPLE 13, (±)-(E)-2-(7-bromo-1′-(3-(2-(trifluoromethyl)phenyl)acryloyl)-2,3-dihydrospiro[indene-1,4′-piperidine]-3-yl)acetamide]
85.6	90.9	< 100			NC(=O)CC1CC2(CCN(C(=O)/C=C/c3ccccc3C(F)(F)F)CC2)c2cc(F)ccc21 (racemic) [EXAMPLE 14, (±)-(E)-2-(6-fluoro-1′-(3-(2-(trifluoromethyl)phenyl)acryloyl)-2,3-dihydrospiro[indene-1,4′-piperidine]-3-yl)acetamide]

Reference: patent publication US8383629B2, “Inhibitors of 11β-hydroxysteroid dehydrogenase type 1” (Vitae Pharmaceuticals, Inc., priority 2008, dated 2013)
